Test results from ChEMBL document CHEMBL1201862, “PubChem BioAssay data set” (2004).
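Method: 48-hour compound exposure of cells in 96-well plates, five concentrations, linear interpolation of endpoints. Here, GI50 denotes the concentration required for 50% inhibition of growth.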 Calls of active or inactive are those of the source. No stated cut-off is given here; in the data, active = GI50 up to about 1.1 µM and inactive = higher.

Tests used:
Assay in all cases: NCI tumour cell line growth inhibition, 48 h
786-0 = test system: 786-0
A498 = test system: A498
A549 = test system: A549
ACHN = test system: ACHN
CAKI-1 = test system: CAKI-1
CCRF-CEM = test system: CCRF-CEM
COLO 205 = test system: COLO 205
DLD-1 = test system: DLD-1
DMS-273 = test system: DMS-273
EKVX = test system: EKVX
HCC 2998 = test system: HCC 2998
HCT-15 = test system: HCT-15
HL-60 = test system: HL-60
HOP-62 = test system: HOP-62
HOP-92 = test system: HOP-92
HT-29 = test system: HT-29
IGROV-1 = test system: IGROV-1
K562 = test system: K562
KM-20L2 = test system: KM-20L2
KM12 = test system: KM12
LOX IMVI = test system: LOX IMVI
LXFL 529 = test system: LXFL 529
M14 = test system: M14
M19-MEL = test system: M19-MEL
MOLT-4 = test system: MOLT-4
Malme-3M = test system: Malme-3M
NCI-H226 = test system: NCI-H226
NCI-H23 = test system: NCI-H23
NCI-H460 = test system: NCI-H460
NCI-H522 = test system: NCI-H522
OVCAR-3 = test system: OVCAR-3
OVCAR-4 = test system: OVCAR-4
OVCAR-5 = test system: OVCAR-5
OVCAR-8 = test system: OVCAR-8
RPMI-8226 = test system: RPMI-8226
RXF 393 = test system: RXF 393
RXF 631 = test system: RXF 631
SF-268 = test system: SF-268
SF-295 = test system: SF-295
SF-539 = test system: SF-539
SK-MEL-28 = test system: SK-MEL-28
SK-MEL-2 = test system: SK-MEL-2
SK-MEL-5 = test system: SK-MEL-5
SK-OV-3 = test system: SK-OV-3
SNB-19 = test system: SNB-19
SNB-75 = test system: SNB-75
SNB-78 = test system: SNB-78
SR = test system: SR
SW-620 = test system: SW-620
TK-10 = test system: TK-10
U-251 = test system: U-251
UACC-257 = test system: UACC-257
UACC-62 = test system: UACC-62
UO-31 = test system: UO-31
XF498 = test system: XF498
DMS-114 = test system: DMS-114
HCT-116 = test system: HCT-116
HOP-18 = test system: HOP-18
SN12C = test system: SN12C

## COC1=CC(=O)[C@@]2(C)C(C)[C@H](c3ccccc3)[C@H]2C1=O (stereo partly specified)
786-0
  GI50: > 100 µM (inactive)
A498
  GI50: > 100 µM (inactive)
A549
  GI50: > 100 µM (inactive)
ACHN
  GI50: > 100 µM (inactive)
CAKI-1
  GI50: > 100 µM (inactive)
CCRF-CEM
  GI50: > 100 µM (inactive)
COLO 205
  GI50: > 100 µM (inactive)
DLD-1
  GI50: > 100 µM (inactive)
DMS-273
  GI50: > 100 µM (inactive)
EKVX
  GI50: > 100 µM (inactive)
HCC 2998
  GI50: > 100 µM (inactive)
HCT-15
  GI50: > 100 µM
HL-60
  GI50: > 100 µM (inactive)
HOP-62
  GI50: > 100 µM (inactive)
HOP-92
  GI50: > 100 µM (inactive)
HT-29
  GI50: > 100 µM (inactive)
IGROV-1
  GI50: > 100 µM (inactive)
K562
  GI50: > 100 µM (inactive)
KM-20L2
  GI50: > 100 µM (inactive)
KM12
  GI50: > 100 µM (inactive)
LOX IMVI
  GI50: > 100 µM (inactive)
LXFL 529
  GI50: > 100 µM (inactive)
M14
  GI50: > 100 µM (inactive)
M19-MEL
  GI50: > 100 µM (inactive)
MOLT-4
  GI50: > 100 µM (inactive)
Malme-3M
  GI50: > 100 µM (inactive)
NCI-H226
  GI50: > 100 µM (inactive)
NCI-H23
  GI50: > 100 µM (inactive)
NCI-H460
  GI50: > 100 µM (inactive)
NCI-H522
  GI50: > 100 µM (inactive)
OVCAR-3
  GI50: > 100 µM (inactive)
OVCAR-4
  GI50: > 100 µM (inactive)
OVCAR-5
  GI50: > 100 µM (inactive)
OVCAR-8
  GI50: > 100 µM (inactive)
RPMI-8226
  GI50: > 100 µM (inactive)
RXF 393
  GI50: > 100 µM (inactive)
RXF 631
  GI50: > 100 µM (inactive)
SF-268
  GI50: > 100 µM (inactive)
SF-295
  GI50: > 100 µM (inactive)
SF-539
  GI50: > 100 µM (inactive)
SK-MEL-28
  GI50: > 100 µM (inactive)
SK-MEL-2
  GI50: > 100 µM (inactive)
SK-MEL-5
  GI50: > 100 µM (inactive)
SK-OV-3
  GI50: > 100 µM (inactive)
SNB-19
  GI50: > 100 µM (inactive)
SNB-75
  GI50: > 100 µM (inactive)
SNB-78
  GI50: > 10 µM (inactive)
SR
  GI50: > 100 µM (inactive)
SW-620
  GI50: > 100 µM (inactive)
TK-10
  GI50: > 100 µM (inactive)
U-251
  GI50: > 100 µM (inactive)
UACC-257
  GI50: > 100 µM (inactive)
UACC-62
  GI50: > 100 µM (inactive)
UO-31
  GI50: > 100 µM (inactive)
XF498
  GI50: > 100 µM (inactive)

## Cc1cc2c(cc1C)[n+]([O-])c(C(=O)C/C(=N/NC(=S)NN)C(=O)Nc1cccc(C(F)(F)F)c1)c[n+]2[O-]
786-0
  GI50: > 100 µM (inactive)
A498
  GI50: > 100 µM (inactive)
A549
  GI50: > 100 µM (inactive)
ACHN
  GI50: > 100 µM (inactive)
CAKI-1
  GI50: > 100 µM (inactive)
CCRF-CEM
  GI50: 56.9 µM (inactive)
COLO 205
  GI50: > 100 µM (inactive)
DLD-1
  GI50: > 100 µM (inactive)
DMS-114
  GI50: > 100 µM (inactive)
DMS-273
  GI50: > 100 µM (inactive)
EKVX
  GI50: > 100 µM (inactive)
HCC 2998
  GI50: > 100 µM (inactive)
HCT-116
  GI50: > 100 µM (inactive)
HCT-15
  GI50: > 100 µM
HL-60
  GI50: > 100 µM (inactive)
HOP-18
  GI50: > 100 µM (inactive)
HOP-62
  GI50: > 100 µM (inactive)
HOP-92
  GI50: > 100 µM (inactive)
HT-29
  GI50: > 100 µM (inactive)
IGROV-1
  GI50: > 100 µM (inactive)
K562
  GI50: > 100 µM (inactive)
KM12
  GI50: > 100 µM (inactive)
LXFL 529
  GI50: > 100 µM (inactive)
M14
  GI50: > 100 µM (inactive)
M19-MEL
  GI50: > 100 µM (inactive)
MOLT-4
  GI50: > 100 µM (inactive)
Malme-3M
  GI50: > 100 µM (inactive)
NCI-H226
  GI50: > 100 µM (inactive)
NCI-H23
  GI50: > 100 µM (inactive)
NCI-H460
  GI50: > 100 µM (inactive)
NCI-H522
  GI50: > 100 µM (inactive)
OVCAR-3
  GI50: > 100 µM (inactive)
OVCAR-4
  GI50: > 100 µM (inactive)
OVCAR-5
  GI50: > 100 µM (inactive)
OVCAR-8
  GI50: > 100 µM (inactive)
RPMI-8226
  GI50: > 100 µM (inactive)
RXF 631
  GI50: > 100 µM (inactive)
SF-268
  GI50: > 100 µM (inactive)
SF-295
  GI50: > 100 µM (inactive)
SF-539
  GI50: > 100 µM (inactive)
SK-MEL-28
  GI50: > 100 µM (inactive)
SK-MEL-2
  GI50: > 100 µM (inactive)
SK-MEL-5
  GI50: > 100 µM (inactive)
SK-OV-3
  GI50: > 100 µM (inactive)
SN12C
  GI50: > 100 µM (inactive)
SNB-19
  GI50: 34 µM (inactive)
SNB-75
  GI50: > 100 µM (inactive)
SNB-78
  GI50: > 100 µM (inactive)
SR
  GI50: 65.6 µM (inactive)
SW-620
  GI50: > 100 µM (inactive)
TK-10
  GI50: > 100 µM (inactive)
U-251
  GI50: > 100 µM (inactive)
UACC-257
  GI50: > 100 µM (inactive)
UACC-62
  GI50: > 100 µM (inactive)
UO-31
  GI50: > 100 µM (inactive)

## Nc1nc2c(ncn2CC(CO)CC(c2ccccc2)P(=O)(O)O)c(=O)[nH]1 (stereo unspecified)
786-0
  GI50: > 100 µM (inactive)
A498
  GI50: > 100 µM (inactive)
A549
  GI50: > 100 µM (inactive)
ACHN
  GI50: > 100 µM (inactive)
CAKI-1
  GI50: > 100 µM (inactive)
CCRF-CEM
  GI50: > 100 µM (inactive)
COLO 205
  GI50: > 100 µM (inactive)
DLD-1
  GI50: > 100 µM (inactive)
DMS-114
  GI50: > 100 µM (inactive)
DMS-273
  GI50: > 100 µM (inactive)
EKVX
  GI50: > 100 µM (inactive)
HCC 2998
  GI50: > 100 µM (inactive)
HCT-116
  GI50: > 100 µM (inactive)
HCT-15
  GI50: > 100 µM
HL-60
  GI50: > 100 µM (inactive)
HOP-18
  GI50: > 100 µM (inactive)
HOP-62
  GI50: > 100 µM (inactive)
HOP-92
  GI50: > 100 µM (inactive)
HT-29
  GI50: > 100 µM (inactive)
IGROV-1
  GI50: > 100 µM (inactive)
K562
  GI50: > 100 µM (inactive)
KM-20L2
  GI50: > 100 µM (inactive)
KM12
  GI50: > 100 µM (inactive)
LOX IMVI
  GI50: > 100 µM (inactive)
LXFL 529
  GI50: > 100 µM (inactive)
M14
  GI50: > 100 µM (inactive)
M19-MEL
  GI50: > 100 µM (inactive)
MOLT-4
  GI50: > 100 µM (inactive)
Malme-3M
  GI50: > 100 µM (inactive)
NCI-H226
  GI50: > 100 µM (inactive)
NCI-H23
  GI50: > 100 µM (inactive)
NCI-H460
  GI50: > 100 µM (inactive)
NCI-H522
  GI50: > 100 µM (inactive)
OVCAR-3
  GI50: > 100 µM (inactive)
OVCAR-5
  GI50: > 100 µM (inactive)
OVCAR-8
  GI50: > 100 µM (inactive)
RPMI-8226
  GI50: > 100 µM (inactive)
RXF 393
  GI50: > 100 µM (inactive)
SF-268
  GI50: > 100 µM (inactive)
SF-295
  GI50: > 100 µM (inactive)
SF-539
  GI50: > 100 µM (inactive)
SK-MEL-28
  GI50: > 100 µM (inactive)
SK-MEL-2
  GI50: > 100 µM (inactive)
SK-MEL-5
  GI50: > 100 µM (inactive)
SK-OV-3
  GI50: > 100 µM (inactive)
SN12C
  GI50: > 100 µM (inactive)
SNB-19
  GI50: > 100 µM (inactive)
SNB-78
  GI50: > 100 µM (inactive)
SR
  GI50: > 100 µM (inactive)
SW-620
  GI50: > 100 µM (inactive)
TK-10
  GI50: > 100 µM (inactive)
U-251
  GI50: > 100 µM (inactive)
UACC-257
  GI50: > 100 µM (inactive)
UACC-62
  GI50: > 100 µM (inactive)
UO-31
  GI50: > 100 µM (inactive)
XF498
  GI50: > 100 µM (inactive)
